# Columns and labels:
# Botrytis cinerea [1] = experiment: in vivo volatile bioassay using strawberry
# Procedure: In order to assess the in vivo activity of volatile antimicrobial compounds, a volatile bioassay is developed using strawberry. Two fruit are placed inside a 240 mL jar, with the calyx facing downwards. […] The acetone is permitted to evaporate for 5 minutes. The jars are then capped with the lids containing the fungicide, and placed for 5 days at 21° C. After storage, fruit are evaluated for incidence and severity of disease and appearance of phytotoxicity.
# Botrytis cinerea [2] = experiment: in vivo volatile bioassay using inoculated white carnations
# Procedure: In order to assess the in vivo activity of volatile antimicrobial Compound A on controlling Botrytis cinerea on ornamental flowers, a volatile bioassay is developed using white carnations.
# Five carnations are placed in an 800 mL jar containing 200 mL of a common commercial flower preservative. Five jars are then placed in a 117 L Rubbermaid storage box (Cat #2244). The petals are uniformly spray-inoculated with 5 mL of 1×10^5 spores/mL of Botrytis cinerea suspension. The tub is closed tightly. For treatment application, Compound A is dissolved in an aqueous 1,2-propylene glycol solution (3:1) and 5 mL of the solution is volatilized into the container using an ES-100-H SmartFog system (Reno, Nev.) through a ½″ side port that is sealed immediately after the application. The flowers are incubated for 3 days at 21° C. After storage, the flowers are evaluated for incidence based on presence of disease on flower petals relative to untreated control flowers for up to 8 days at 21° C., with results summarized in Table 12.
# [3] = system: Pectobacterium carotovorum; experiment: in vivo volatile assay on potato, onion and carrot cubes; settings: 50 mg/L; for Log CFU/mL: 10 C for four days
# Procedure: To test the effect of Compound A at controlling bacterial pathogens of vegetables, potato, onion and carrot are chopped into small cubes and surface sterilized with 0.825% NaOCl and allowed to dry. Four small cubes (approximately […]) of each vegetable are placed in a sterile Petri plate. Each cube is inoculated with 25 μL of Pectobacterium carotovorum (bacterial concentration of OD 1.0, 600 nm). […] No. 1001-042) attached to the inner side of the lid. The acetone is permitted to evaporate for five minutes before closing the plate and sealing it with parafilm. The vegetables are incubated at 10 C for four days.
# Penicillium expansum = experiment: in vivo volatile bioassay using apple; settings: 50 mg/L; for Sporulation (mm) / Rot (mm): apples
# Procedure: In order to assess the in vivo activity of volatile antimicrobial Compound A in fruit, a volatile bioassay is developed using apple. Two apples are placed inside a PET clamshell. Three fresh wounds per apple are inoculated with 30 μL of 1×10^6 per mL Penicillium expansum spore suspension. The clamshells are placed inside a 10.8-cup SnapWare airtight container (Model #109842). A 42.5 mm Whatman #1 filter disk (Cat. No. 1001-042) is placed on a watch glass. Compound A is dissolved in acetone and added to the disks in a manner to produce a final headspace concentration of 50 mg/L. The acetone is permitted to evaporate for five minutes. The containers are then closed with the lids, and placed for three days at 21° C. After storage, fruits are evaluated for disease incidence (mm diameter of the rot) and pathogen sporulation (mm diameter) on the surface of the fruits for an additional three days at 21° C., with results summarized in Table 19.
# Botrytis cinerea [4] = experiment: in vivo strawberry assay, release from cellulose paper and Tyvek fabric; settings: strawberries
# Procedure: An in vivo assay is used to evaluate the ability of Compound A to volatilize from different materials and control fungal pathogens. Eight strawberries are placed in a clamshell with stem end facing downwards. […] The clamshells are then placed in a 10.8-cup SnapWare airtight container (Model #109842). Compound A is dissolved in acetone and then evenly sprayed onto cellulose paper and Tyvek® fabric at a rate of 200 milligrams per square meter (mg/m^2). The acetone is allowed to evaporate. Likewise Compound A is dissolved in propylene glycol and evenly sprayed onto cellulose paper and Tyvek® fabric. No evaporation is attempted in this case.
# Pieces of material are cut to the appropriate dimensions to deliver a final headspace concentration of 0.4, 2, or 10 mg/L. The containers are close, and placed for three days at 21° C. After treatment, fruit are stored for an additional two days at 21° C. and then evaluated for incidence (%) and severity (0 to 4) of disease, with the results summarized in Table 23.
compound,measurement,setting,value
OB1OCc2cc(F)ccc21 [Compound A],Percent (%) Incidence of Botrytis cinerea on Strawberry (in vivo),"Botrytis cinerea [1]; 0.005 mg/disk, 5 days at 21° C.",75%
same,Percent (%) Incidence of Botrytis cinerea on Strawberry (in vivo),"Botrytis cinerea [1]; 0.01 mg/disk, 5 days at 21° C.",100%
same,Percent (%) Incidence of Botrytis cinerea on Strawberry (in vivo),"Botrytis cinerea [1]; 0.02 mg/disk, 5 days at 21° C.",50%
same,Percent (%) Incidence of Botrytis cinerea on Strawberry (in vivo),"Botrytis cinerea [1]; 0.04 mg/disk, 5 days at 21° C.",75%
same,Percent (%) Incidence of Botrytis cinerea on Strawberry (in vivo),"Botrytis cinerea [1]; 0.08 mg/disk, 5 days at 21° C.",0%
same,Percent (%) Incidence of Botrytis cinerea on Strawberry (in vivo),"Botrytis cinerea [1]; 0.16 mg/disk, 5 days at 21° C.",0%
same,Percent (%) Incidence of Botrytis cinerea on Strawberry (in vivo),"Botrytis cinerea [1]; 0.32 mg/disk, 5 days at 21° C.",0%
same,Percent (%) Incidence of Botrytis cinerea on Strawberry (in vivo),"Botrytis cinerea [1]; 0.64 mg/disk, 5 days at 21° C.",0%
same,Percent (%) Incidence of Botrytis cinerea on Strawberry (in vivo),"Botrytis cinerea [1]; 1.25 mg/disk, 5 days at 21° C.",0%
same,Percent (%) Incidence of Botrytis cinerea on Strawberry (in vivo),"Botrytis cinerea [1]; 2.5 mg/disk, 5 days at 21° C.",0%
same,lowest rate with 100% control of Botrytis cinerea,"Botrytis cinerea [1]; strawberry, 5 days at 21° C.",0.16 mg/disk
same,appearance of phytotoxicity,"Botrytis cinerea [1]; strawberry, any of the rates evaluated (2.5 to 0.005 mg/disk)",no evidence of phytotoxicity
same,Disease incidence (%) on Petals,"Botrytis cinerea [2]; 0.04 mg/L, Day 0",0%
same,Disease incidence (%) on Petals,"Botrytis cinerea [2]; 0.04 mg/L, Day 1",0%
same,Disease incidence (%) on Petals,"Botrytis cinerea [2]; 0.04 mg/L, Day 2",16%
same,Disease incidence (%) on Petals,"Botrytis cinerea [2]; 0.04 mg/L, Day 3",40%
same,Disease incidence (%) on Petals,"Botrytis cinerea [2]; 0.04 mg/L, Day 8",92%
same,Disease incidence (%) on Petals,"Botrytis cinerea [2]; 0.2 mg/L, Day 0",0%
same,Disease incidence (%) on Petals,"Botrytis cinerea [2]; 0.2 mg/L, Day 1",8%
same,Disease incidence (%) on Petals,"Botrytis cinerea [2]; 0.2 mg/L, Day 2",20%
same,Disease incidence (%) on Petals,"Botrytis cinerea [2]; 0.2 mg/L, Day 3",16%
same,Disease incidence (%) on Petals,"Botrytis cinerea [2]; 0.2 mg/L, Day 8",36%
same,Disease incidence (%) on Petals,"Botrytis cinerea [2]; 1 mg/L, Day 0",0%
same,Disease incidence (%) on Petals,"Botrytis cinerea [2]; 1 mg/L, Day 1",0%
same,Disease incidence (%) on Petals,"Botrytis cinerea [2]; 1 mg/L, Day 2",0%
same,Disease incidence (%) on Petals,"Botrytis cinerea [2]; 1 mg/L, Day 3",4%
same,Disease incidence (%) on Petals,"Botrytis cinerea [2]; 1 mg/L, Day 8",16%
same,Log reduction,[3]; Carrot,0.29 log
same,Log CFU/mL,[3]; Carrot,6.06 Log CFU/mL
same,Log reduction,[3]; Onion,2.14 log
same,Log CFU/mL,[3]; Onion,5.99 Log CFU/mL
same,Log reduction,[3]; Potato,0.84 log
same,Log CFU/mL,[3]; Potato,6.63 Log CFU/mL
same,in vivo volatile antimicrobial control of P. expansum mold of apple,Penicillium expansum; up to 3 days after treatment,100%
same,Sporulation (mm),Penicillium expansum; Day 0,0 mm
same,Rot (mm),Penicillium expansum; Day 1,0 mm
same,Sporulation (mm),Penicillium expansum; Day 1,0 mm
same,Rot (mm),Penicillium expansum; Day 2,0 mm
same,Sporulation (mm),Penicillium expansum; Day 2,0 mm
same,Rot (mm),Penicillium expansum; Day 3,0 mm
same,Sporulation (mm),Penicillium expansum; Day 3,0 mm
same,Incidence (%),"Botrytis cinerea [4]; 0.4 mg/L, Cellulose Paper",37.5%
same,Severity (0-4),"Botrytis cinerea [4]; 0.4 mg/L, Cellulose Paper",0.8
same,Incidence (%),"Botrytis cinerea [4]; 0.4 mg/L, Tyvek",31.3%
same,Severity (0-4),"Botrytis cinerea [4]; 0.4 mg/L, Tyvek",0.5
same,Incidence (%),"Botrytis cinerea [4]; 2 mg/L, Cellulose Paper",37.5%
same,Severity (0-4),"Botrytis cinerea [4]; 2 mg/L, Cellulose Paper",0.7
same,Incidence (%),"Botrytis cinerea [4]; 2 mg/L, Tyvek",6.3%
same,Severity (0-4),"Botrytis cinerea [4]; 2 mg/L, Tyvek",0.1
same,Severity (0-4),"Botrytis cinerea [4]; 10 mg/L, Cellulose Paper",0.2
same,Incidence (%),"Botrytis cinerea [4]; 10 mg/L, Tyvek",6.3%
same,Severity (0-4),"Botrytis cinerea [4]; 10 mg/L, Tyvek",0.3
